Values joined by “and” are separate entries in the source; they are usually repeats but may differ in a detail not shown here. Identical values can stand only once. Like-named read-outs stand apart in the source and are kept apart here.
Experiments:
[1] = biological target: T1, BCR-ABL^WT (Homo sapiens, UniProt P00519); assay: In vitro kinase screening (RBC), BCR-ABL^WT; format: biochemical; conditions: 10-dose IC50 mode, 3-fold serial dilution, 10 μM ATP
[2] = system: L132 normal cell; assay: MTT antiproliferative assay; conditions: Homo sapiens, L132, 72 h, read-out: GI50 L132
[3] = biological target: T2, BCR-ABL^T315I (Homo sapiens, UniProt P00519, T315I); assay: In vitro kinase screening (RBC), BCR-ABL^T315I; format: biochemical; conditions: 10-dose IC50 mode, 3-fold serial dilution, 10 μM ATP
T2 construct: purchased Reaction Biology Corporation (RBC, Malvern, PA, USA)

[4] = system: leukaemia K-562 cells; assay: MTT antiproliferative assay; conditions: for GI50: Homo sapiens, K562, 72 h, read-out: GI50 K-562; for SI: selectivity index (GI50 (L132)/GI50 (K562)): MTT, 72 h
[5] = biological target: DDR1 (Homo sapiens, UniProt Q08345); assay: Kinase selectivity test against DDR1; format: biochemical
Sequence of DDR1 (Q08345 19-913, species assumed): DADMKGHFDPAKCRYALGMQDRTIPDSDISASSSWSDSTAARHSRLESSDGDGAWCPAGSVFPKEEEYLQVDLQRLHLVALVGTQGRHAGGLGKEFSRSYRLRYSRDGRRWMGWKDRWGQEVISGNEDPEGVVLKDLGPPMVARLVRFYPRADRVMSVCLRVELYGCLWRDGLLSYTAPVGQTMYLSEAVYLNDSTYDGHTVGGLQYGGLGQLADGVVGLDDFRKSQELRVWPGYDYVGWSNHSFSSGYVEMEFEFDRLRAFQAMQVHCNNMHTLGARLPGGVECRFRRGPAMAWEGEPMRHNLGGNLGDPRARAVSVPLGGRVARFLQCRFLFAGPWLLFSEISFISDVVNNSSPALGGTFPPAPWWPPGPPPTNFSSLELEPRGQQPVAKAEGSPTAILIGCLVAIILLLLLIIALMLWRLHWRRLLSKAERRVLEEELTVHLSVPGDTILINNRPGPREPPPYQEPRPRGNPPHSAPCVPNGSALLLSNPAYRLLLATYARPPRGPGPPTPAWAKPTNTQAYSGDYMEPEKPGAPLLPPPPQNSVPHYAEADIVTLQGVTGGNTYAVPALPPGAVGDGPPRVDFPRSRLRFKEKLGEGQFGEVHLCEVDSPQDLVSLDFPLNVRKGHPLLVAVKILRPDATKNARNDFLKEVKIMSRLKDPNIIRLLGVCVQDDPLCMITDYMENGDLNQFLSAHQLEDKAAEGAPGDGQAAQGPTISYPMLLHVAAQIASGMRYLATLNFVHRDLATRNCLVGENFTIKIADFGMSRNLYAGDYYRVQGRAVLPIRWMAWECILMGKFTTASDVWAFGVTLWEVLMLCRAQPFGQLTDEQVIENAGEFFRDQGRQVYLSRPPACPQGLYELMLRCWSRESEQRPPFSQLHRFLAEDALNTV
Protocol: On the other hand, to gain certain insights about the kinase selectivity of this array of ureidobenzothiazoles, compounds 2a and 2b were tested against DDR1 (Figure 4). Discoidin domain receptors (DDR1/2) are transmembrane receptor tyrosine kinases (RTKs), activated by fibrillar collagens. DDR1/2 and BCR-ABL share almost 61% sequence similarities in their ATP binding domains. […] This observation points out the merit of these ureidobenzothiazoles over the known BCR-ABL inhibitors in achieving exceptional selectivity towards BCR-ABL.

[6] = biological target: T2, BCR-ABL^T315I; conditions: reported values ref 19; cited from earlier work
[7] = system: K-562 cell line; design: method as in PMID 25881828; conditions: K-562, single dose 10 μM; cited from earlier work
[8] = biological target: T1, BCR-ABL^WT; design: method as in PMID 25881828; conditions: reported values ref 19; cited from earlier work
[9] = system: NCI-60 cell lines; assay: NCI-60 single dose SRB assay (panel); format: cell-based; conditions: single dose 10 μM
Description: To gain further insights about the anticancer profile of this new ureidobenzothiazole chemotypes, the structures of all final compounds were submitted to the National Cancer Institute (NCI, Developmental Therapeutics Program, Bethesda, MD, USA). Based on NCI selection criteria, compounds 2b (AK-HW-90), 2e, and 2f were chosen for broad screening against a library of 60 human cancer cell lines, representing nine types of blood and solid cancers. Employing the highly sensitive sulforhodamine B (SRB) assay, compounds 2b, 2e, and 2f were tested initially at a single dose of 10 μM, and their detailed activities on the percentages growth of the NCI-60 cell lines were illustrated in Figure 5, and compared with that observed for the lead benzothiazole AKE-5l.

IC50 [1] | IC50 [3] | GI50 [4] | IC50 [5] | SMILES | GI50 [2] | SI: selectivity index (GI50 (L132)/GI50 (K562)) [4] | IC50 [6] | % growth [7] | IC50 [8] | number of cancer cells with cytostatic growth inhibitory activity (% growth less than 40) [9]
1.5 nM | 2 nM and 2.03 nM | 4520 nM | 195 nM | COc1ccccc1-c1ccc2nc(NC(=O)Nc3ccc(N4CCN(C)CC4)cc3)sc2c1 [Compound 2a] | 26800 nM | 5.9 |  |  |  | 
 |  |  |  | CNC(=O)c1cc(Oc2ccc3nc(NC(=O)NCCCN4CCN(C)CC4)sc3c2)ccn1 [AKE-5l] |  |  | 39.9 nM | 10.22% | 18.2 nM | 
2.16 nM | 8.11 nM | 3820 nM |  | COc1ccccc1-c1ccc2nc(NC(=O)Nc3ccc(N4CCOCC4)cc3)sc2c1 [Compound 2c] | 26100 nM | 6.8 |  |  |  | 
 |  | > 10000 nM |  | COc1ccccc1-c1ccc2nc(NC(=O)Nc3cccc(C(F)(F)F)c3)sc2c1 [Compound 2d] |  |  |  |  |  | 

SMILES | IC50 [1] | IC50 [3] | GI50 [4] | IC50 [5] | GI50 [2] | SI: selectivity index (GI50 (L132)/GI50 (K562)) [4] | IC50 [6] | % growth [7] | IC50 [8] | number of cancer cells with cytostatic growth inhibitory activity (% growth less than 40) [9]
COc1ccccc1-c1ccc2nc(NC(=O)Nc3ccc(CN4CCOCC4)c(C(F)(F)F)c3)sc2c1 [Compound 2f] | 74.6 nM | 226 nM | > 10000 nM |  |  |  |  |  |  | 14 cancer cells
